Assay: mn = molality of the nth substance listed, in mol/kg
Details: Liquid, Vibrating tube method

[Cl-].[Cl-].[Zn+2] [zinc chloride] + CO
Details	mass density [kg/m3]
298.27 K, 170 kPa, m1 = 0.8018	861.37
298.27 K, 188 kPa, m1 = 0.4768	833.84
298.27 K, 200 kPa, m1 = 5.367	1205.67
298.27 K, 203 kPa, m1 = 1.039	881.26
298.27 K, 205 kPa, m1 = 0.1348	801.32
298.27 K, 205 kPa, m1 = 1.977	959.59
298.27 K, 4983 kPa, m1 = 5.367	1209.53
298.27 K, 4985 kPa, m1 = 1.039	885.56
298.27 K, 4994 kPa, m1 = 0.4768	838
298.27 K, 4996 kPa, m1 = 0.8018	865.98
298.27 K, 5004 kPa, m1 = 0.1348	805.97
298.27 K, 5014 kPa, m1 = 1.977	963.97
298.27 K, 9992 kPa, m1 = 5.367	1213.48
298.27 K, 9995 kPa, m1 = 0.8018	870.53
298.27 K, 9996 kPa, m1 = 1.977	968.35
298.27 K, 9997 kPa, m1 = 1.039	889.93
298.27 K, 10000 kPa, m1 = 0.1348	810.57
298.27 K, 10004 kPa, m1 = 0.4768	841.99
298.27 K, 14982 kPa, m1 = 0.4768	845.9
298.27 K, 14987 kPa, m1 = 1.039	894.12
298.27 K, 14995 kPa, m1 = 5.367	1217.3
298.27 K, 14997 kPa, m1 = 1.977	972.58
298.27 K, 15000 kPa, m1 = 0.8018	874.88
298.27 K, 15010 kPa, m1 = 0.1348	814.96
298.27 K, 19985 kPa, m1 = 1.039	898.15
298.27 K, 19988 kPa, m1 = 5.367	1221.03
298.27 K, 19989 kPa, m1 = 1.977	976.63
298.27 K, 20001 kPa, m1 = 0.8018	879.03
298.27 K, 20007 kPa, m1 = 0.1348	819.13
298.27 K, 20018 kPa, m1 = 0.4768	849.66
298.27 K, 24988 kPa, m1 = 0.8018	883.01
298.27 K, 24993 kPa, m1 = 1.977	980.56
298.27 K, 24996 kPa, m1 = 5.367	1224.68
298.27 K, 24999 kPa, m1 = 0.1348	823.11
298.27 K, 25003 kPa, m1 = 1.039	902.02
298.27 K, 25032 kPa, m1 = 0.4768	853.57
298.27 K, 29990 kPa, m1 = 1.977	984.35
298.27 K, 29994 kPa, m1 = 5.367	1228.21
298.27 K, 30002 kPa, m1 = 0.1348	826.95
298.27 K, 30004 kPa, m1 = 0.4768	857.56
298.27 K, 30004 kPa, m1 = 0.8018	886.87
298.27 K, 30007 kPa, m1 = 1.039	905.8
298.27 K, 34983 kPa, m1 = 1.039	909.4
298.27 K, 34992 kPa, m1 = 0.8018	890.56
298.27 K, 34993 kPa, m1 = 0.1348	830.61
298.27 K, 34993 kPa, m1 = 0.4768	862.15
298.27 K, 34996 kPa, m1 = 5.367	1231.68
298.27 K, 35014 kPa, m1 = 1.977	988.04
298.27 K, 39991 kPa, m1 = 1.039	912.9
298.27 K, 39994 kPa, m1 = 1.977	991.58
298.27 K, 39994 kPa, m1 = 5.367	1235.1
298.27 K, 39997 kPa, m1 = 0.4768	866.01
298.27 K, 39997 kPa, m1 = 0.8018	894.15
298.27 K, 40006 kPa, m1 = 0.1348	834.16
323.24 K, 207 kPa, m1 = 0.4768	808.23
323.24 K, 209 kPa, m1 = 0.1348	777.17
323.24 K, 209 kPa, m1 = 5.367	1172.87
323.24 K, 220 kPa, m1 = 1.039	855.22
323.24 K, 230 kPa, m1 = 1.977	931.65
323.24 K, 233 kPa, m1 = 0.8018	835.94
323.24 K, 4983 kPa, m1 = 0.8018	841.09
323.24 K, 4985 kPa, m1 = 0.4768	813.47
323.24 K, 4990 kPa, m1 = 0.1348	782.51
323.24 K, 4993 kPa, m1 = 1.977	936.57
323.24 K, 4994 kPa, m1 = 1.039	860.28
323.24 K, 4999 kPa, m1 = 5.367	1177.21
323.24 K, 9985 kPa, m1 = 1.977	941.48
323.24 K, 9994 kPa, m1 = 0.4768	818.67
323.24 K, 9997 kPa, m1 = 5.367	1181.61
323.24 K, 10002 kPa, m1 = 0.8018	846.25
323.24 K, 10003 kPa, m1 = 0.1348	787.77
323.24 K, 10005 kPa, m1 = 1.039	865.32
323.24 K, 14982 kPa, m1 = 0.4768	823.55
323.24 K, 14998 kPa, m1 = 1.977	946.2
323.24 K, 14999 kPa, m1 = 0.1348	792.71
323.24 K, 14999 kPa, m1 = 1.039	870.09
323.24 K, 15002 kPa, m1 = 0.8018	851.11
323.24 K, 15002 kPa, m1 = 5.367	1185.89
323.24 K, 19995 kPa, m1 = 0.4768	828.21
323.24 K, 19998 kPa, m1 = 5.367	1190.03
323.24 K, 19999 kPa, m1 = 0.8018	855.74
323.24 K, 19999 kPa, m1 = 1.977	950.72
323.24 K, 20000 kPa, m1 = 0.1348	797.39
323.24 K, 20003 kPa, m1 = 1.039	874.64
323.24 K, 24989 kPa, m1 = 0.8018	860.16
323.24 K, 24989 kPa, m1 = 1.977	955.05
323.24 K, 24989 kPa, m1 = 5.367	1194.06
323.24 K, 24990 kPa, m1 = 1.039	878.98
323.24 K, 24994 kPa, m1 = 0.1348	801.85
323.24 K, 24999 kPa, m1 = 0.4768	832.65
323.24 K, 29987 kPa, m1 = 0.4768	836.86
323.24 K, 29989 kPa, m1 = 0.8018	864.4
323.24 K, 29990 kPa, m1 = 1.977	959.23
323.24 K, 29993 kPa, m1 = 0.1348	806.09
323.24 K, 30001 kPa, m1 = 5.367	1197.99
323.24 K, 30007 kPa, m1 = 1.039	883.18
323.24 K, 34987 kPa, m1 = 5.367	1201.8
323.24 K, 34989 kPa, m1 = 1.039	887.17
323.24 K, 34998 kPa, m1 = 0.8018	868.48
323.24 K, 35001 kPa, m1 = 1.977	963.27
323.24 K, 35003 kPa, m1 = 0.4768	840.94
323.24 K, 35007 kPa, m1 = 0.1348	810.14
323.24 K, 39991 kPa, m1 = 1.039	891.04
323.24 K, 39994 kPa, m1 = 0.4768	844.83
323.24 K, 39995 kPa, m1 = 0.8018	872.4
323.24 K, 39995 kPa, m1 = 5.367	1205.55
323.24 K, 39997 kPa, m1 = 0.1348	814
323.24 K, 39997 kPa, m1 = 1.977	967.17
348.27 K, 305 kPa, m1 = 1.977	904.26
348.27 K, 308 kPa, m1 = 0.1348	752.15
348.27 K, 320 kPa, m1 = 0.4768	782.8
348.27 K, 328 kPa, m1 = 0.8018	810.17
348.27 K, 330 kPa, m1 = 1.039	829.39
348.27 K, 335 kPa, m1 = 5.367	1141.63
348.27 K, 4982 kPa, m1 = 5.367	1146.29
348.27 K, 4983 kPa, m1 = 0.4768	788.73
348.27 K, 4984 kPa, m1 = 1.977	909.72
348.27 K, 4989 kPa, m1 = 0.1348	758.25
348.27 K, 4994 kPa, m1 = 1.039	835.08
348.27 K, 4999 kPa, m1 = 0.8018	816.01
348.27 K, 9985 kPa, m1 = 1.977	915.25
348.27 K, 9992 kPa, m1 = 0.8018	821.86
348.27 K, 9992 kPa, m1 = 5.367	1151.14
348.27 K, 9993 kPa, m1 = 0.1348	764.3
348.27 K, 9998 kPa, m1 = 0.4768	794.7
348.27 K, 10000 kPa, m1 = 1.039	840.82
348.27 K, 14985 kPa, m1 = 0.4768	800.24
348.27 K, 14985 kPa, m1 = 0.8018	827.35
348.27 K, 14987 kPa, m1 = 1.039	846.22
348.27 K, 14992 kPa, m1 = 1.977	920.51
348.27 K, 14999 kPa, m1 = 0.1348	769.95
348.27 K, 15020 kPa, m1 = 5.367	1155.81
348.27 K, 19986 kPa, m1 = 1.977	925.5
348.27 K, 19989 kPa, m1 = 0.4768	805.48
348.27 K, 19994 kPa, m1 = 0.8018	832.56

From the NIST ThermoML archive (doi:10.1021/je050509f)
